# According to patent publication US10179770B2, “Quinolines derivatives as novel anticancer agents” (GENOSCIENCE PHARMA, priority 2013, dated 2019):
# What was measured:
# Assay in all cases: NCI-60 screen (SRB)
# Type in all cases: cell-based
# MALME-3M = MALME-3M (Melanoma)
# Procedure: (§1) The human tumor cell lines of the cancer screening panel are grown in RPMI 1640 medium containing 5% fetal bovine serum and 2 mM L-glutamine. For a typical screening experiment, cells are inoculated into 96 well microtiter plates in 100 μL at plating densities ranging from 5,000 to 40,000 cells/well depending on the doubling time of individual cell lines. After cell inoculation, the microtiter plates are incubated at 37° C., 5% CO2, 95% air and 100% relative humidity for 24 h prior to addition of experimental drugs.
# (§2) After 24 h, two plates of each cell line are fixed in situ with TCA, to represent a measurement of the cell population for each cell line at the time of drug addition (Tz). Experimental drug is solubilized in dimethyl sulfoxide at 400-fold the desired final maximum test concentration and stored frozen prior to use. At the time of drug addition, an aliquot of frozen concentrate is thawed and diluted to twice the desired final maximum test concentration with complete medium containing 50 μg/ml gentamicin. Additional four, 10-fold or ½ log serial dilutions are made to provide a total of five drug concentrations plus control. Aliquots of 100 μl of these different drug dilutions are added to the appropriate microtiter wells already containing 100 μl of medium, resulting in the required final drug concentrations.
# (§3) Following drug addition, the plates are incubated for an additional 48 h at 37° C., 5% CO2, 95% air, and 100% relative humidity. For adherent cells, the assay is terminated by the addition of cold TCA. Cells are fixed in situ by the gentle addition of 50 μl of cold 50% (w/v) TCA (final concentration, 10% TCA) and incubated for 60 minutes at 4° C. The supernatant is discarded, and the plates are washed five times with tap water and air dried. Sulforhodamine B (SRB) solution (100 μl) at 0.4% (w/v) in 1% acetic acid is added to each well, and plates are incubated for 10 minutes at room temperature. After staining, unbound dye is removed by washing five times with 1% acetic acid and the plates are air dried. Bound stain is subsequently solubilized with 10 mM trizma base, and the absorbance is read on an automated plate reader at a wavelength of 515 nm. For suspension cells, the methodology is the same except that the assay is terminated by fixing settled cells at the bottom of the wells by gently adding 50 μl of 80% TCA (final concentration, 16% TCA). Using the seven absorbance measurements [time zero, (Tz), control growth, (C), and test growth in the presence of drug at the five concentration levels (Ti)], the percentage growth is calculated at each of the drug concentrations levels.
# (§4) Percentage growth inhibition is calculated as: [(Ti−Tz)/(C−Tz)]×100 for concentrations for which Ti>/=Tz (1) [(Ti−Tz)/Tz]×100 for concentrations for which Ti<Tz (2)
# (§5) Growth inhibition of 50% (GI50) is calculated from [(Ti−Tz)/(C−Tz)]×100=50 (3)
# (§6) which is the drug concentration resulting in a 50% reduction in the net protein increase (as measured by SRB staining) in control cells during the drug incubation.
# (§7) The drug concentration resulting in total growth inhibition (TGI) is calculated from Ti=Tz (4)
# (§8) The LC50 (concentration of drug resulting in a 50% reduction in the measured protein at the end of the drug treatment as compared to that at the beginning) indicating a net loss of cells following treatment is calculated from [(Ti−Tz)/Tz]×100=−50 (5)
# (§9) Values are calculated for each of these three parameters if the level of activity is reached; however, if the effect is not reached or is exceeded, the value for that parameter is expressed as greater or less than the maximum or minimum concentration tested.
# SF-295 = SF-295 (CNS)
# Procedure: as §1, §2, §3, §4, §5, §6, §7, §8, §9
# NCI-H23 = NCI-H23 (Non-Small Cell Lung)
# Procedure: as §1, §2, §3, §4, §5, §6, §7, §8, §9
# HCT-15 = HCT-15 (Colon)
# Procedure: as §1, §2, §3, §4, §5, §6, §7, §8, §9
# DU-145 = DU-145 (Prostate)
# Procedure: as §1, §2, §3, §4, §5, §6, §7, §8, §9
# OVCAR-8 = OVCAR-8 (Ovarian)
# Procedure: as §1, §2, §3, §4, §5, §6, §7, §8, §9
# 786-0 = 786-0 (Renal)
# Procedure: as §1, §2, §3, §4, §5, §6, §7, §8, §9
# MCF7 = MCF7 (Breast)
# Procedure: as §1, §2, §3, §4, §5, §6, §7, §8, §9
# HCT-116 = HCT-116 (Colon)
# Procedure: as §1, §2, §3, §4, §5, §6, §7, §8, §9
# UO-31 = UO-31 (Renal)
# Procedure: as §1, §2, §3, §4, §5, §6, §7, §8, §9
# NCI-H226 = NCI-H226 (Non-Small Cell Lung)
# Procedure: as §1, §2, §3, §4, §5, §6, §7, §8, §9
# RXF393 = RXF393 (Renal)
# Procedure: as §1, §2, §3, §4, §5, §6, §7, §8, §9
# CAKI-1 = CAKI-1 (Renal)
# Procedure: as §1, §2, §3, §4, §5, §6, §7, §8, §9
# IGROVI = IGROVI (Ovarian)
# Procedure: as §1, §2, §3, §4, §5, §6, §7, §8, §9
# SK-OV3 = SK-OV3 (Ovarian)
# Procedure: as §1, §2, §3, §4, §5, §6, §7, §8, §9
# HOP-92 = HOP-92 (Non-Small Cell Lung)
# Procedure: as §1, §2, §3, §4, §5, §6, §7, §8, §9
# NCI-H522 = NCI-H522 (Non-Small Cell Lung)
# Procedure: as §1, §2, §3, §4, §5, §6, §7, §8, §9
# [1] = Homo sapiens, read-out: LC50 (the source's name)
smiles,measurement,setting,value
"CC(C)(C)NC1CCN(c2cc(-c3ccc(Cl)cc3)nc3ccccc23)CC1.Cl.Cl [XII-4, 2-(4-chloro-phenyl)-4-(4-N-tert-butylamino-piperidin-1-yl)quinoline dihydrochloride]",Growth percent at 10 μM,MALME-3M,××× (cell growth −40 < % > −60)
same,Growth percent at 10 μM,SF-295,− (cell growth % > 80)
same,Growth percent at 10 μM,NCI-H23,− (cell growth % > 80)
same,Growth percent at 10 μM,HCT-15,++++ (cell growth 0 > % < 20)
same,Growth percent at 10 μM,DU-145,− (cell growth % > 80)
same,Growth percent at 10 μM,OVCAR-8,− (cell growth % > 80)
same,Growth percent at 10 μM,786-0,++ (cell growth 40 > % < 60)
same,Growth percent at 10 μM,MCF7,++ (cell growth 40 > % < 60)
same,Growth percent at 10 μM,HCT-116,+++ (cell growth 20 > % < 40)
same,Growth percent at 10 μM,UO-31,+++ (cell growth 20 > % < 40)
same,Growth percent at 10 μM,NCI-H226,− (cell growth % > 80)
same,Growth percent at 10 μM,RXF393; 10 μM,+++ (cell growth 20 > % < 40)
same,Growth percent at 10 μM,CAKI-1,+++ (cell growth 20 > % < 40)
same,Growth percent at 10 μM,IGROVI,++ (cell growth 40 > % < 60)
same,Growth percent at 10 μM,SK-OV3,− (cell growth % > 80)
same,Growth percent at 10 μM,HOP-92,++ (cell growth 40 > % < 60)
same,Growth percent at 10 μM,NCI-H522,+ (cell growth 60 > % < 80)
"CCN(CC)C1CCN(C(C)c2cc(-c3ccccc3)nc3ccccc23)CC1.Cl.Cl (stereo not drawn) [XIX-3, 2-phenyl-4-{1-[4-(N,N-diethylamino)piperidin-1-yl]-eth-1-yl}quinoline dihydrochloride]",GI50,MALME-3M; Homo sapiens,2000 nM
same,CC50,MALME-3M; [1],7 µM
same,TGI,MALME-3M,4 µM
same,Growth percent at 10 μM,MALME-3M,×× (cell growth −20 > % < −40)
same,GI50,SF-295; Homo sapiens,4 µM
same,CC50,SF-295; [1],48 µM
same,TGI,SF-295,15 µM
same,Growth percent at 10 μM,SF-295,− (cell growth % > 80)
same,GI50,NCI-H23; Homo sapiens,> 100 µM
same,CC50,NCI-H23; [1],> 100 µM
same,TGI,NCI-H23,>100 µM
same,Growth percent at 10 μM,NCI-H23,− (cell growth % > 80)
same,TGI,HCT-15,14 µM
same,Growth percent at 10 μM,HCT-15,++++ (cell growth % < 20)
same,GI50,HCT-15; Homo sapiens,3000 nM
same,CC50,HCT-15; [1],47 µM
same,TGI,DU-145,28 µM
same,Growth percent at 10 μM,DU-145,− (cell growth % > 80)
same,GI50,DU-145; Homo sapiens,14 µM
same,CC50,DU-145; [1],54 µM
same,GI50,OVCAR-8; Homo sapiens,14 µM
same,CC50,OVCAR-8; [1],62 µM
same,TGI,OVCAR-8,30 µM
same,Growth percent at 10 μM,OVCAR-8,+ (cell growth 60 > % < 80)
same,TGI,786-0,23 µM
same,Growth percent at 10 μM,786-0,++ (cell growth 40 > % < 60)
same,GI50,786-0; Homo sapiens,8 µM
same,CC50,786-0; [1],54 µM
same,GI50,MCF7; Homo sapiens,8 µM
same,LC50 (50% lethal concentration),MCF7; Homo sapiens,56 µM
same,TGI,MCF7,22 µM
same,Growth percent at 10 μM,MCF7,++ (cell growth 40 > % < 60)
same,TGI,HCT-116,19 µM
same,Growth percent at 10 μM,HCT-116,++ (cell growth 40 > % < 60)
same,GI50,HCT-116; Homo sapiens,5 µM
same,CC50,HCT-116; [1],51 µM
same,GI50,UO-31; Homo sapiens,8 µM
same,CC50,UO-31; [1],22 µM
same,TGI,UO-31,22 µM
same,Growth percent at 10 μM,UO-31,++ (cell growth 40 > % < 60)
same,GI50,NCI-H226; Homo sapiens,19 µM
same,CC50,NCI-H226; [1],74 µM
same,TGI,NCI-H226,38 µM
same,Growth percent at 10 μM,NCI-H226,− (cell growth % > 80)
same,GI50,"RXF393; Homo sapiens, RXF 393",4 µM
same,CC50,"RXF393; Homo sapiens, RXF 393, read-out: LC50 (the source's name)",17 µM
same,TGI,RXF393,17 µM
same,TGI,CAKI-1,28 µM
same,Growth percent at 10 μM,CAKI-1,+ (cell growth 60 > % < 80)
same,GI50,CAKI-1; Homo sapiens,13 µM
same,CC50,CAKI-1; [1],58 µM
same,GI50,IGROVI; Homo sapiens,5 µM
same,CC50,IGROVI; [1],63 µM
same,TGI,IGROVI,21 µM
same,Growth percent at 10 μM,IGROVI,++ (cell growth 40 > % < 60)
same,GI50,"SK-OV3; Homo sapiens, SK-OV-3",17 µM
same,LC50 (concentration killing 50% of cells),"SK-OV3; Homo sapiens, SK-OV-3",59 µM
same,TGI,SK-OV3,31 µM
same,Growth percent at 10 μM,SK-OV3,− (cell growth % > 80)
same,TGI,HOP-92,17 µM
same,Growth percent at 10 μM,HOP-92,++ (cell growth 40 > % < 60)
same,GI50,HOP-92; Homo sapiens,3000 nM
same,CC50,HOP-92; [1],47 µM
same,GI50,NCI-H522; Homo sapiens,15 µM
same,CC50,NCI-H522; [1],66 µM
same,TGI,NCI-H522,32 µM
same,Growth percent at 10 μM,NCI-H522,+++ (cell growth 20 > % < 40)
